Experimental findings from ChEMBL document CHEMBL2150977, “Synthesis of highly water-soluble fibrate derivatives via BGLation” (Bioorg Med Chem Lett, 2012) are described below.

Data set [1] concerns Rattus norvegicus. Description: Antihyperlipidemic activity in Sprague-Dawley rat assessed as decrease in plasma triglyceride level at […], po administered QD for 8 days relative to vehicle-treated control. Format: functional, organism-based.
Data set [2] deals with Rattus norvegicus. Kind of data set: Drug metabolism in Sprague-Dawley rat assessed as fenofibric acid level in plasma at 100 mg/kg, po after 4 hrs. Format: ADME, organism-based. Details: dose 100 mg/kg, route oral. To be noted: in vivo.
Data set [3] has as its system Rattus norvegicus. Description: Toxicity in Sprague-Dawley rat assessed as body weight loss at […], po relative to vehicle-treated control. To be noted: in vivo. Format: organism-based.
Data set [4] deals with Rattus norvegicus. Kind of data set: Toxicity in Sprague-Dawley rat assessed as aberrant behaviour at […], po relative to vehicle-treated control. Format: organism-based. To be noted: in vivo.
A short description of data set [5]: Aqueous solubility of the compound. Type of data set: physicochemical. Conditions: water.
Data set [6] concerns Rattus norvegicus. Description: Drug metabolism in Sprague-Dawley rat assessed as fenofibric acid level in plasma at 150 mg/kg, po after 4 hrs. Format: ADME, organism-based. On the set-up: dose 150 mg/kg, route oral. Conditions: in vivo.

Activity calls are given as the source filed them. The calls are words filed in the database; no cut-off is given here.

Consider `CC(C)OC(=O)C(C)(C)Oc1ccc(C(=O)c2ccc(Cl)cc2)cc1` [FENOFIBRATE], for which, in data set [1], the outcome was Active. Also, in data set [2], the Drug metabolism entry is “Active”.

As for `CC(C)(Oc1ccc(C(=O)c2ccc(Cl)cc2)cc1)C(=O)OCCO`, the Activity result in data set [3] and in data set [4] was “Non-toxic” throughout. The outcome in data set [1] was Active.

In data set [5], `CC(C)(Oc1ccc(CCNC(=O)c2ccc(Cl)cc2)cc1)C(=O)OC(COC(CO)CO)COC(CO)CO` returned a solubility greater than 1000 µg/mL.

`CC(C)(Oc1ccc(Cl)cc1)C(=O)OC(COC(CO)CO)COC(CO)CO` gave a solubility in data set [5] greater than 1000 µg/mL.

Turning to `CC(C)(Oc1ccc(C(=O)c2ccc(Cl)cc2)cc1)C(=O)OC(CO)CO`, the Activity entry in data set [3] and in data set [4] was “Non-toxic” each time. In data set [1], the result was Active.

Regarding `CC(C)(Oc1ccc(C(=O)c2ccc(Cl)cc2)cc1)C(=O)OC(COC(CO)CO)COC(CO)CO`, the Drug metabolism entry in data set [6] is listed as “Active”. The Activity entry in data set [3] and in data set [4] was “Non-toxic” in each case. Besides, in data set [1], the result was Active. Also, in data set [5], the solubility is greater than 1000 µg/mL.

One may read the solubility as the dissolved amount per volume that the medium holds. A higher solubility goes with a readily soluble substance.
